Where two headings read alike, the source gives them in different places.
What was measured:
[1] = test system: Bmal1 mRNA; assay: Real-time RT-PCR of Bmal1 mRNA in peripheral tissues; type: in vivo, mice; conditions: after a single treatment
Protocol: (§1) Male C57BL/6J mice (7 weeks old) were purchased from Charles River Japan (Kanagawa, Japan) and used for the serum hormone assay and RT-PCR. Male ICR mice were purchased from Tokyo Laboratory Animals Science Co., Ltd. (Tokyo, Japan), and female PERIOD2::LUCIFERASE (PER2::LUC) knock-in mice (ICR background) bred at Waseda University were used for blood glucose measurements and in vivo imaging assays, respectively. The mice were all housed under conditions of controlled temperature (23 °C ± 3 °C), humidity (50% ± 20%), and lighting (lights on from 07:00 to 19:00 at Taisho Pharmaceutical Co., Ltd. or from 08:00 to 20:00 at Waseda University). In the 24 h cycle, Zeitgeber time 0 (ZT0) was designated as the time when the lights were turned on, and ZT12 was designated as the time when the lights were turned off. All the mice were given access to food and tap water ad libitum, and nobiletin (10–100 mg/kg; purchased from FUJIFILM Wako Pure Chemical Corporation, Osaka, Japan) was administered by intraperitoneal (i.p.) injection in the vehicle (10 mL/kg body weight) containing 0.5% carboxymethyl cellulose (CMC). Rolipram (PDE4 inhibitor, FUJIFILM Wako Pure Chemical Corporation) and SR1078 (RORα/γ agonist, FUJIFILM Wako Pure Chemical Corporation) were also used for the experiment at 10 mg/kg in 0.5% CMC [12]. Mice were euthanized by rapid decapitation for whole blood samples.
(§2) Figure 3 Nobiletin stimulated adrenaline and corticosterone secretion, and induced acute clock gene expression changes. (A–C) Mice received intraperitoneal injections of control (0.5% CMC) or nobiletin (10 or 100 mg/kg) at ZT3. (A) Serum corticosterone at 1 h after treatment (n = 6 in each). $$$ p < 0.001 by Tukey’s multiple comparisons test. (B) Serum corticosterone and adrenaline at 1, 2, and 4 h after treatment (n = 4 in each). # p < 0.05 vs. control at each time point by Mann–Whitney test; ** p < 0.01 vs. control at each time point by Student’s t-test. (C) Blood glucose changes after treatment (n = 9 in each). Statistics of 2-way repeated ANOVA are indicated on the graph. […]

[2] = test system: PDE4B; parameters: method as in PMID 22451408; conditions: cited from earlier work
[3] = test system: PDE1C; parameters: method as in PMID 22451408; conditions: cited from earlier work
[4] = test system: corticosterone; conditions: cited from earlier work
[5] = test system: CRF; parameters: method as in PMID 9179387; conditions: isolated hypothalamic in vitro; cited from earlier work
[6] = test system: CRF; parameters: method as in PMID 9179387; conditions: intraperitoneal injection to mice; cited from earlier work
[7] = test system: serum corticosterone; assay: Serum corticosterone ELISA after i.p. injection; type: in vivo, mice; conditions: 10 mg/kg i.p. at ZT3, 1 h after treatment
Protocol: (§3) Male C57BL/6J mice (7 weeks old) were purchased from Charles River Japan (Kanagawa, Japan) and used for the serum hormone assay and RT-PCR. Male ICR mice were purchased from Tokyo Laboratory Animals Science Co., Ltd. (Tokyo, Japan), and female PERIOD2::LUCIFERASE (PER2::LUC) knock-in mice (ICR background) bred at Waseda University were used for blood glucose measurements and in vivo imaging assays, respectively. The mice were all housed under conditions of controlled temperature (23 °C ± 3 °C), humidity (50% ± 20%), and lighting (lights on from 07:00 to 19:00 at Taisho Pharmaceutical Co., Ltd. or from 08:00 to 20:00 at Waseda University). In the 24 h cycle, Zeitgeber time 0 (ZT0) was designated as the time when the lights were turned on, and ZT12 was designated as the time when the lights were turned off. […]
(§4) Serum corticosterone, adrenaline, and adreno-corticotropic hormone (ACTH) levels, and corticotropin releasing factor (CRF) in the hypothalamus, were measured using enzyme-linked immunosorbent assay (ELISA). […] Blood glucose levels were measured using a Glucose PILOT kit (Aventir Biotech, LLC, Carlsbad, CA, USA). The range of blood glucose that could be precisely measured with the kit was 20–600 mg/dL. […]

[8] = test system: serum adrenaline; assay: Serum adrenaline ELISA after i.p. injection; type: in vivo, mice; conditions: 10 mg/kg i.p. at ZT3, 1 h after treatment
Protocol: as §3, §4

[9] = test system: Per1 mRNA; assay: Real-time RT-PCR of Per1 mRNA in peripheral tissues; type: in vivo, mice; conditions: stomach and lung, 2 h after 10 mg/kg i.p.
Protocol: as §1, §2

[10] = test system: Per2 mRNA; assay: Real-time RT-PCR of Per2 mRNA in peripheral tissues; type: in vivo, mice; conditions: stomach and lung, 2 h after 10 mg/kg i.p.
Protocol: as §1, with “samples. […]” for “samples.”

[11] = test system: adrenaline; parameters: method as in PMID 9245486; conditions: intraperitoneal, 40–200 μg/kg; cited from earlier work

In the case of `O=C(Nc1ccc(C(O)(C(F)(F)F)C(F)(F)F)cc1)c1ccc(C(F)(F)F)cc1` [SR1078], the Bmal1 expression [1] is reported as “did not change significantly”.

In the case of `COc1cc(-c2cc(=O)c3c(O)c(OC)c(O)c(OC)c3o2)ccc1O` [Sudachitin], the “inhibition of PDE4B” value [2] is given as “inhibit” and the “inhibition of PDE1C” value [3] is given as “inhibit”.

For `CCCCn1c(=O)c2c(ncn2CC(C)=O)n(CCCC)c1=O` [denbufylline], the corticosterone secretion ([4]; via the HPA system) is listed as “promotes corticosterone secretion”, the CRF production [5] is listed as “significant production of CRF” and the “CRF induction in vivo” value [6] is listed as “produced CRF induction”.

For `COc1ccc(C2CNC(=O)C2)cc1OC1CCCC1` (stereo not drawn) [rolipram], the corticosterone secretion [7] was “detected”, the adrenaline secretion [8] was “detected” and the “Per1 mRNA changes” value [9] was “detected”. The “Per2 mRNA changes” value [10] was “detected”, the Bmal1 expression [1] was “did not change” and the corticosterone secretion ([4]; intraperitoneal, 40–200 μg/kg) was “increases”. The serum corticosterone ([4]; low dose, 1.6 and 8 μg/kg) was “did not produce serum corticosterone increase”, the adrenaline secretion [11] was “increases” and the CRF production [5] was “significant production of CRF”.
